The target in one assay is BTK (Homo sapiens, UniProt Q06187). Nature of the assay: BTK cell degradation in TMD-8 cells, HTRF assay. More on the design: endogenous in cells; host or cells: TMD-8 cells. It is filed as cell-based. Particulars: 6 h treatment, IC50 (DC50) of BTK degradation. The essentials: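 BTK levels read by HTRF in lysates of TMD-8 cells exposed to compounds for 6 h, eight concentrations at 6-fold steps in 0.2% DMSO. Percent degradation versus DMSO and low controls was fitted with a four-parameter equation to give DC50; Dmax is maximal degradation.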
Background: Time-resolved FRET reads energy transfer from a long-lived donor to a nearby acceptor.

Another assay concerns HEK-293 cells. Put plainly: HEK-293 cytotoxicity detection (CellTiter-Glo). Type of assay: cell-based. Particulars: Homo sapiens, 72 h, 72 h incubation, CellTiter-Glo luminescence, read-out: HEK293. The method in brief: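 HEK-293 cells exposed 72 h to 8 compounds doses (4-fold dilutions, top stock 5 mM at 500×) in 0.2% DMSO. Viability by CellTiter-Glo luminescence; inhibition normalised to DMSO high control and low control, IC50 from four-parameter curve fit.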
In general terms: Cellular ATP, detected with luciferase, serves as a proxy for viable cell number.

Chain of BTK (Q06187 whole entry): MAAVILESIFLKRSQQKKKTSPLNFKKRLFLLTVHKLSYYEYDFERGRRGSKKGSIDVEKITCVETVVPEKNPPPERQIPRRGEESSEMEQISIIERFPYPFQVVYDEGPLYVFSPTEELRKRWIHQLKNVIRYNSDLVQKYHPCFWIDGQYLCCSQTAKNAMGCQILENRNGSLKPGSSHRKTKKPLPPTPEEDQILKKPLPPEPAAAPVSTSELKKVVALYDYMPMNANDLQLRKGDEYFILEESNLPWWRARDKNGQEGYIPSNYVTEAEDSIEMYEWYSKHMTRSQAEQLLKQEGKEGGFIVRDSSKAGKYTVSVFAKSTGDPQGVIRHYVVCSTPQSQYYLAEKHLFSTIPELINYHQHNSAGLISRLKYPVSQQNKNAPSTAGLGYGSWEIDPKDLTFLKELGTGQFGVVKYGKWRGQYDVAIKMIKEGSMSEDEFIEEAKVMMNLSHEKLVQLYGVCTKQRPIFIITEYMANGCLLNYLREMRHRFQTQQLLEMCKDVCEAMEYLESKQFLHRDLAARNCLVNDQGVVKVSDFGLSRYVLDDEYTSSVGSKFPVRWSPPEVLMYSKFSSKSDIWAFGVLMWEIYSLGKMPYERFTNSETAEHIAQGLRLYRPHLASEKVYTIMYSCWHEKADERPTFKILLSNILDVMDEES

Take `Cc1c(C(=O)Nc2ncn(C)n2)ccc(-c2nn3c(c2C(N)=O)Nc2ccc(N4CCN(CC5CCN(c6ccc(N7CCC(=O)NC7=O)cc6)CC5)CC4)cc2CC3)c1F` [Example B84, 7-(4-((1-(4-(2,4-dioxotetrahydropyrimidin-1(2H)-yl)phenyl)piperidin-4-yl)methyl)piperazin-1-yl)-2-(2-fluoro-3-methyl-4-((1-methyl-1H-1,2,4-triazol-3-yl)carbamoyl)phenyl)-9,10-dihydro-4H-benzo[d]pyrazolo[1,5-a][1,3]diazepine-3-carboxamide]: the DC50 (commonly the concentration at which degradation of the target reaches its halfway point) on BTK was determined as 2.32 nM. In addition, in the assay on HEK-293 cells, the IC50 was greater than 10000 nM.

The compound `Cc1c(C(=O)Nc2cc(C(F)(F)F)ccn2)ccc(-c2nn3c(c2C(N)=O)Nc2ccc(N4CCN(CC5CCN(c6ccc(N7CCC(=O)NC7=O)cc6)CC5)CC4)cc2CC3)c1F` [Example B15, 7-(4-((1-(4-(2,4-dioxotetrahydropyrimidin-1(2H)-yl)phenyl)piperidin-4-yl)methyl)piperazin-1-yl)-2-(2-fluoro-3-methyl-4-((4-(trifluoromethyl)pyridin-2-yl)carbamoyl)phenyl)-9,10-dihydro-4H-benzo[d]pyrazolo[1,5-a][1,3]diazepine-3-carboxamide] came in with a half-maximal degradation concentration (DC50) on BTK of 1.13 nM. The IC50 in the assay with HEK-293 cells was determined as 185 nM.

In turn, `Cc1c(C(=O)Nc2cscn2)ccc(-c2nn3c(c2C(N)=O)Nc2ccc(N4CCN(C5CC(c6ccc(N[C@@H]7CCC(=O)NC7=O)cc6)C5)CC4)cc2CC3)c1F` (stereo partly drawn) [Example B100, (R)-7-(4-(3-(4-((2,6-dioxopiperidin-3-yl)amino)phenyl)cyclobutyl)piperazin-1-yl)-2-(2-fluoro-3-methyl-4-(thiazol-4-ylcarbamoyl)phenyl)-9,10-dihydro-4H-benzo[d]pyrazolo[1,5-a][1,3]diazepine-3-carboxamide] returned a DC50 at BTK of 2.14 nM. Further, the IC50 in the assay on HEK-293 cells is 34.1 nM.

Compound `Cc1cccc(NC(=O)c2ccc(-c3nn4c(c3C(N)=O)Nc3ccc(N5CCN(CC6CCN(c7ccc(N8CCC(=O)NC8=O)cc7)CC6)CC5)cc3CC4)c(F)c2C)n1` [Example B28, 7-(4-((1-(4-(2,4-dioxotetrahydropyrimidin-1(2H)-yl)phenyl)piperidin-4-yl)methyl)piperazin-1-yl)-2-(2-fluoro-3-methyl-4-((6-methylpyridin-2-yl)carbamoyl)phenyl)-9,10-dihydro-4H-benzo[d]pyrazolo[1,5-a][1,3]diazepine-3-carboxamide] gave a DC50 on BTK of 0.726 nM. Besides, the IC50 with HEK-293 cells is greater than 10000 nM.

`COc1c(C)cccc1C(=O)NCc1ccc(-c2nn3c(c2C(N)=O)Nc2ccc(N4CCN(CC5CCN(c6ccc(N7CCC(=O)NC7=O)cc6)CC5)CC4)cc2CC3)cc1C` [Example C49, 7-(4-((1-(4-(2,4-dioxotetrahydropyrimidin-1(2H)-yl)phenyl)piperidin-4-yl)methyl)piperazin-1-yl)-2-(4-((2-methoxy-3-methylbenzamido)methyl)-3-methylphenyl)-9,10-dihydro-4H-benzo[d]pyrazolo[1,5-a][1,3]diazepine-3-carboxamide] gave a DC50 on BTK of 9.8 nM. Besides, in the assay with HEK-293 cells, the IC50 was greater than 10000 nM.

The compound `Cc1cc(-c2nn3c(c2C(N)=O)Nc2ccc(N4CCN(CC5CCN(c6ccc(N7CCC(=O)NC7=O)cc6)CC5)CC4)cc2CC3)ccc1CNC(=O)c1ccn(C(C)(C)C)n1` [Example C9, 2-(4-((1-(tert-butyl)-1H-pyrazole-3-carboxamido)methyl)-3-methylphenyl)-7-(4-((1-(4-(2,4-dioxotetrahydropyrimidin-1(2H)-yl)phenyl)piperidin-4-yl)methyl)piperazin-1-yl)-9,10-dihydro-4H-benzo[d]pyrazolo[1,5-a][1,3]diazepine-3-carboxamide] registered a DC50 at BTK of 54.2 nM. For the same compound, the IC50 in the assay on HEK-293 cells is greater than 10000 nM.

In turn, `COc1ccc(Cl)cc1C(=O)NCc1ccc(-c2nn3c(c2C(N)=O)Nc2ccc(N4CCN(CC5CCN(c6ccc(N7CCC(=O)NC7=O)cc6)CC5)CC4)cc2CC3)cc1C` [Example C6, 2-(4-((5-chloro-2-methoxybenzamido)methyl)-3-methylphenyl)-7-(4-((1-(4-(2,4-dioxotetrahydropyrimidin-1(2H)-yl)phenyl)piperidin-4-yl)methyl)piperazin-1-yl)-9,10-dihydro-4H-benzo[d]pyrazolo[1,5-a][1,3]diazepine-3-carboxamide] gave a half-maximal degradation concentration (DC50) at BTK of 3.4 nM. Also, in the assay on HEK-293 cells, the IC50 was greater than 10000 nM.

In the case of `COc1ccc(C(=O)NCc2ccc(-c3nn4c(c3C(N)=O)Nc3ccc(N5CCN(CC6CCN(c7ccc(N8CCC(=O)NC8=O)cc7)CC6)CC5)cc3CC4)cc2)c(OC)c1` [Example C23, 2-(4-((2,4-dimethoxybenzamido)methyl)phenyl)-7-(4-((1-(4-(2,4-dioxotetrahydropyrimidin-1(2H)-yl)phenyl)piperidin-4-yl)methyl)piperazin-1-yl)-9,10-dihydro-4H-benzo[d]pyrazolo[1,5-a][1,3]diazepine-3-carboxamide], on BTK, it took 2 nM to reach half-maximal degradation (DC50). Also, in the assay on HEK-293 cells, the IC50 is greater than 10000 nM.

`NC(=O)c1c(-c2ccc(Oc3ccccc3)cc2)nn2c1Nc1cc(C3CCN(CCc4ccc(C5CCC(=O)NC5=O)cc4)CC3)ccc1CC2` (stereo not drawn) [Example A34, 6-(1-(4-(2,6-dioxopiperidin-3-yl)phenethyl)piperidin-4-yl)-2-(4-phenoxyphenyl)-9,10-dihydro-4H-benzo[d]pyrazolo[1,5-a][1,3]diazepine-3-carboxamide] showed a DC50 on BTK of 11.9 nM. In addition, the IC50 in the assay with HEK-293 cells was found to be 337 nM.

In turn, `Cc1c(C(=O)Nc2ncnn2C)ccc(-c2nn3c(c2C(N)=O)Nc2ccc(N4CCN(CC5CCN(c6ccc(N7CCC(=O)NC7=O)cc6)CC5)CC4)cc2CC3)c1F` [Example B93, 7-(4-((1-(4-(2,4-dioxotetrahydropyrimidin-1(2H)-yl)phenyl)piperidin-4-yl)methyl)piperazin-1-yl)-2-(2-fluoro-3-methyl-4-((1-methyl-1H-1,2,4-triazol-5-yl)carbamoyl)phenyl)-9,10-dihydro-4H-benzo[d]pyrazolo[1,5-a][1,3]diazepine-3-carboxamide] yielded a DC50 on BTK of 3.77 nM. In addition, in the assay with HEK-293 cells, the IC50 was greater than 10000 nM.

Compound `COc1ccc(F)c(F)c1C(=O)NCc1ccc(-c2nn3c(c2C(N)=O)Nc2ccc(N4CCN(CC5CCN(c6ccc(N7CCC(=O)NC7=O)cc6)CC5)CC4)cc2CC3)cc1` [Example C25, 2-(4-((2,3-difluoro-6-methoxybenzamido)methyl)phenyl)-7-(4-((1-(4-(2,4-dioxotetrahydropyrimidin-1(2H)-yl)phenyl)piperidin-4-yl)methyl)piperazin-1-yl)-9,10-dihydro-4H-benzo[d]pyrazolo[1,5-a] [1,3]diazepine-3-carboxamide] yielded a DC50 at BTK of 0.611 nM. Also, in the assay with HEK-293 cells, the IC50 is greater than 10000 nM.

On to `Cc1ccnc(NC(=O)c2ccc(-c3nn4c(c3C(N)=O)Nc3ccc(N5CCN(CC6CCN(c7ccc(N8CCC(=O)NC8=O)cc7)CC6)CC5)cc3CC4)cc2)c1` [Example B10, 7-(4-((1-(4-(2,4-dioxotetrahydropyrimidin-1(2H)-yl)phenyl)piperidin-4-yl)methyl)piperazin-1-yl)-2-(4-((4-methylpyridin-2-yl)carbamoyl)phenyl)-9,10-dihydro-4H-benzo[d]pyrazolo[1,5-a][1,3]diazepine-3-carboxamide], for which the DC50 on BTK was 4.69 nM. Moreover, the IC50 in the assay on HEK-293 cells is greater than 10000 nM.

(Values after patent publication US20240246977A1, “DEGRADATION OF BRUTON'S TYROSINE KINASE (BTK) BY CONJUGATION OF BTK INHIBITORS WITH E3 LIGASE LIGAND AND METHOD OF USE” (BeiGene Switzerland GmbH, priority 2021, published 2024).)
